Measured values as given in patent US7893299B2, “Interleukin-1 and tumor necrosis factor-αmodulators; syntheses of such modulators and methods of using such modulators” (Nereus Pharmaceuticals, Inc., priority 2005, dated 2011).
Like-named read-outs stand apart in the source and are kept apart here.

Columns and labels:
RPMI 8226 cells = assay: cell growth inhibition, RPMI 8226, Resazurin, 1% FBS; format: cell-based, Human; conditions: 48 hr of drug exposure
Protocol: Human prostate adenocarcinoma (PC-3; CRL-1435), multiple myeloma (RPMI 8226; CCL-155) and embryonic kidney (HEK-293; CRL-1573) cells were all purchased from ATCC and maintained in appropriate culture media. The cells were cultured in an incubator at 37° C. in 5% CO2 and 95% humidified air.
For cell growth inhibition assays, PC-3 and HEK-293 cells were seeded at 5×10^3 and 1.5×10^3 cells/well respectively in 90 μl media containing 1% (v/v) FBS into 96 well (Corning; 3904) black-walled, clear-bottom tissue culture plates and the plates were incubated overnight to allow cells to establish and enter log phase growth. RPMI 8226 cells were seeded at 2×10^4 cells/well respectively in 90 μl media containing 1% (v/v) FBS into 96 well plates on the day of the assay. 4 mg/ml stock solutions of the compounds were prepared in 100% DMSO and stored at −20° C. The compounds were serially diluted and added in triplicate to the test wells. LT-1-85 was tested at concentrations ranging from 27 μM to 8.6 nM. Concentrations ranging from 30 μM to 9.7 nM were tested for CC-3-13P. Formula (IIB-A1) was tested at concentrations ranging from 26 μM to 8.4 nM. The plates were returned to the incubator for 48 hours. The final concentration of DMSO was 0.25% in all samples.
Following 48 hours of drug exposure, 10 μl of 0.2 mg/ml Resazurin in Mg2+, Ca2+ free phosphate buffered saline was added to each well and the plates were returned to the incubator for 3-6 hours. Since living cells metabolize Resazurin, the fluorescence of the reduction product of Resazurin was measured using a Fusion microplate fluorometer (Packard Bioscience) with λex=535 nm and λem=590 nm filters. Resazurin dye in medium without cells was used to determine the background, which was subtracted from the data for all experimental wells. […] Where the maximum inhibition of cell growth was less than 50%, an EC50 value was not determined. The data in Table 25 summarize the growth inhibitory effects of LT-1-85, CC-3-13P and formula (IIB-A1) against HEK-293, PC-3 and RPMI 8226 cells. The EC50 values indicate that LT-1-85 and CC-3-13P are cytotoxic against HEK-293, PC-3 and RPMI 8226 cells. Formula (IIB-A1) is cytotoxic against RPMI 8226 cells.

[1] = test system: TNF-α production in HPBMC; assay: TNF-α levels in LPS-stimulated Human Peripheral Blood Mononuclear cells (ELISA); format: cell-based; conditions: 5 hr drug exposure, read-out: EC50 Inhibition of TNF-α production
Protocol: Eighty μl of 3.1×10^5/ml Human Peripheral Blood Mononuclear cells (HPBMC) were seeded in Costar 3904 96-well plate in LGM-3 medium and cultured for 12 hr at 37° C., 5% CO2 and 95% humidified air. 10 μl of 8-point half-log serial dilutions of LT-1-85, CC-3-19, CC-3-13P, formula (IIB-A1) and CC-3-22 prepared in LGM-3 medium was added to the cells and incubated for 1 hr. Subsequently, 10 μl of 500 ng/ml lipopolysaccharide (LPS) diluted in LGM-3 medium from 1 mg/ml stock solution was added to the cells and incubation proceeded for another 4 hr at 37° C., 5% CO2 and 95% humidified air. SB203580, a known p38 MAP kinase inhibitor and DMSO were used as positive and negative controls, respectively. After 4 hr stimulation with LPS, the level of TNF-α from each sample was analyzed by using the human TNF-α cytoset ELISA kit. EC50 values (the drug concentration at which 50% of the maximal observed TNF-α production is inhibited) were determined using a standard sigmoidal dose response curve fitting algorithm (Prism 2.0, GraphPad Software Inc). A duplicate set of cell plates were assayed for cell viability using the Resazurin dye after the cells were incubated with test compounds for 24 hr. The fluorescence of the reduction product of Resazurin was measured using a Fusion microplate fluorometer (Packard Bioscience) with λex=535 nm and λem=590 nm filters. EC50 values (the drug concentration at which 50% of the maximal observed growth inhibition is established) were determined using a standard sigmoidal dose response curve fitting algorithm (Prism 2.0, GraphPad Software Inc).

[2] = test system: TNF-α production in THP-1 cells; assay: LPS-induced TNF-α production in differentiated THP-1 cells (FLISA); format: cell-based; conditions: Homo sapiens, read-out: Percent TNF-α Inhibition; for inhibition at 0.1 µg/mL: 100 ng/ml; for inhibition at 1 µg/mL: 1 ug/ml; for inhibition at 10 µg/mL: 10 ug/ml
Protocol: The ability to inhibit TNF-α production was analyzed in THP-1 cells, a human acute monocytic leukemia cell line that is widely used to assess monocyte functions. In order to induce maturation, THP-1 cells were plated at 1×10^6 cells/ml and pretreated with 5 nM PMA for two days. Differentiated THP-1 cells were pretreated with various concentrations of TTL3 or its analogs for 1 hour, followed by a 4 hour incubation with 1 μg of LPS (Sigma, St. Louse, Mo.). The p38 inhibitor (SB 203580; Sigma, St. Louis, Mo.) was used as a positive control. Supernatants were collected and stored at −80° C. until assayed for TNF-α activity. A resazurin assay was performed for each analog to evaluate the effects on cell metabolism and viability.
To detect the presence of human TNFα, fluorescent linked immunosorbent assay or FLISA was developed and optimized. 100 μl of beads (6 μm, Spherotech) coated with goat anti-mouse IgG (1 mg/ml, R and D Systems) were mixed with 4 μl of biotin-anti-hTNFα mouse IgG (0.1 mg/ml, R and D Systems) and 2 μl of FMAT Blue-streptavidin (0.1 mg/ml, Applied Biosystems). 50 μl of the mixtures was combined with 50 μl of the supernatant isolated from treated THP-1 cells and added to the black wall FLISA plates (Applied Biosystems) and incubated overnight. The plates were scanned at factory set PMT setting, and the values were plotted and analyzed by Applied Biosystems software.

`C=C[C@@]1(C)CCC=C2[C@H]1CC[C@@H]1[C@](C)(C(=O)NC3CCCCC3)CCC[C@@]21C` [Formula (IIB-A1), N-Cyclohexylamide Derivative of TTL] gave an EC50 (RPMI 8226 cells; Homo sapiens, RPMI-8226, 48 h) of 21 µM and an EC50 ([1]; Homo sapiens, PBMC, 5 h) of 1.4 µM.
With `C=C[C@@]1(C)CCC=C2[C@H]1CC[C@@H]1[C@](C)(C(=O)OC)CCC[C@@]21C` [TTL3] the inhibition at 0.1 µg/mL [2] was 30%, the inhibition at 1 µg/mL [2] was 55% and the inhibition at 10 µg/mL [2] was 70%.
`C=C[C@@]1(C)CCC=C2[C@H]1CC[C@@H]1[C@](C)(C(=O)N3CCOCC3)CCC[C@@]21C` [LT-1-85] was tested, and the EC50 (RPMI 8226 cells) was 13 µM, the EC50 (RPMI 8226 cells; Homo sapiens, RPMI-8226, 48 h) was 14 µM and the EC50 [1] was 2.3 µM. The EC50 ([1]; Homo sapiens, PBMC, 5 h) was 1.9 µM, the inhibition at 0.1 µg/mL [2] was 10% and the inhibition at 1 µg/mL [2] was 45%. The inhibition at 10 µg/mL [2] was 55%.
